Peptide text beside a SMILES is read from it.
Experiments:
Format in all cases: biochemical
HDAC8 = biological target: T1, HDAC8 (Homo sapiens, UniProt Q9BY41); assay: HDAC8 inhibition, full IC50 measurement (Reaction Biology; fluorogenic p53 peptide RHKK(Ac)AMC); settings: t1/t2 replicates
T1 construct: purchased Reaction Biology Corporation (assay run by the CRO)
T1 sequence (Q9BY41 1-377): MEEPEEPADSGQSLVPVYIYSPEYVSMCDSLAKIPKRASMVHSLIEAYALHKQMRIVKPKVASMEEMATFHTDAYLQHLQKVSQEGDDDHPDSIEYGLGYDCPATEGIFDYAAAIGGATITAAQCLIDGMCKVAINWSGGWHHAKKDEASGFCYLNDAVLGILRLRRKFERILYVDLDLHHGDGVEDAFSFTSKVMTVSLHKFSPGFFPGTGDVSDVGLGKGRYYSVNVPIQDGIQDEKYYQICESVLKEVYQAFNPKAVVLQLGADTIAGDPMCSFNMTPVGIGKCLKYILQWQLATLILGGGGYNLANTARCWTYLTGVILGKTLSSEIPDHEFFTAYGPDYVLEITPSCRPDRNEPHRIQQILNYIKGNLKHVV
In short: (§1)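 Inhibitory peptides were acoustically dispensed with enzyme, then substrate added; 1 h at 30 °C. Developer stopped reaction; plateau endpoint fluorescence (360/460 nm) gave IC50.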

HDAC6 = biological target: T2, HDAC6 (Homo sapiens, UniProt Q9UBN7); assay: HDAC6 inhibition, full IC50 measurement (Reaction Biology; fluorogenic p53 peptide RHKK(Ac)AMC)
T2 construct: purchased Reaction Biology Corporation (assay run by the CRO)
T2 sequence (Q9UBN7 1-1215): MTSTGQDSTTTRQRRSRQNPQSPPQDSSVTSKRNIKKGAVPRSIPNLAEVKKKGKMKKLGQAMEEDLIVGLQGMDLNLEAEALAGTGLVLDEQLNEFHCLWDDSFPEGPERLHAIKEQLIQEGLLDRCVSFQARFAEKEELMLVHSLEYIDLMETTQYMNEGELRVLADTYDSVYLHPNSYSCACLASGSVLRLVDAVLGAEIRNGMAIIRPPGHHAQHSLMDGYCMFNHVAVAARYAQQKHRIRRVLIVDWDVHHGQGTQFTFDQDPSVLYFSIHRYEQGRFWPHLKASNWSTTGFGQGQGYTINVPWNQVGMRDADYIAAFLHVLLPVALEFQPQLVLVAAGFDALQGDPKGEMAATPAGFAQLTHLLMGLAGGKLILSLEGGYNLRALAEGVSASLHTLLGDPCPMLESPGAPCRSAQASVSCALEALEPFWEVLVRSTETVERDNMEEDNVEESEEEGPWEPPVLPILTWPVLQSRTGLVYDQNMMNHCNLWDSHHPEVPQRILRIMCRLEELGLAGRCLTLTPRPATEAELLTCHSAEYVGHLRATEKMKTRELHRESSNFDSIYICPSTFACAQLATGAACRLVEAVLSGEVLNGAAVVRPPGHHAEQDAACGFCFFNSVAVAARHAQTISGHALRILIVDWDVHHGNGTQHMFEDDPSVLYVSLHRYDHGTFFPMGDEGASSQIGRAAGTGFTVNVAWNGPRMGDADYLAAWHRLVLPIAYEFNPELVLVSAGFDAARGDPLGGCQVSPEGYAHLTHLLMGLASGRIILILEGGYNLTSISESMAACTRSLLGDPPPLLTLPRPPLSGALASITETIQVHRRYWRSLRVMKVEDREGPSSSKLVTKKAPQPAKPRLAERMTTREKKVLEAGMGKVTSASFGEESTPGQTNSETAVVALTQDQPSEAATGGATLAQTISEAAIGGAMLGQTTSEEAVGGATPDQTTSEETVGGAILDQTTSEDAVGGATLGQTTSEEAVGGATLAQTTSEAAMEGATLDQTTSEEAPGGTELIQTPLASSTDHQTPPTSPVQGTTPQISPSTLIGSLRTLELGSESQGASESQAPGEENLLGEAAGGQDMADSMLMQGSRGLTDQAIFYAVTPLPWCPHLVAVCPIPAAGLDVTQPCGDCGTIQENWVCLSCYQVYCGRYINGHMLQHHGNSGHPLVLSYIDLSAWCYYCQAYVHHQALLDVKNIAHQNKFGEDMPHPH
In short: as §1

HDAC3 = biological target: T3, HDAC3 (Homo sapiens, UniProt O15379); assay: HDAC3 inhibition, full IC50 measurement (Reaction Biology; fluorogenic p53 peptide RHKK(Ac)AMC)
T3 construct: purchased Reaction Biology Corporation (assay run by the CRO)
In short: as §1

T3 sequence (O15379 whole entry): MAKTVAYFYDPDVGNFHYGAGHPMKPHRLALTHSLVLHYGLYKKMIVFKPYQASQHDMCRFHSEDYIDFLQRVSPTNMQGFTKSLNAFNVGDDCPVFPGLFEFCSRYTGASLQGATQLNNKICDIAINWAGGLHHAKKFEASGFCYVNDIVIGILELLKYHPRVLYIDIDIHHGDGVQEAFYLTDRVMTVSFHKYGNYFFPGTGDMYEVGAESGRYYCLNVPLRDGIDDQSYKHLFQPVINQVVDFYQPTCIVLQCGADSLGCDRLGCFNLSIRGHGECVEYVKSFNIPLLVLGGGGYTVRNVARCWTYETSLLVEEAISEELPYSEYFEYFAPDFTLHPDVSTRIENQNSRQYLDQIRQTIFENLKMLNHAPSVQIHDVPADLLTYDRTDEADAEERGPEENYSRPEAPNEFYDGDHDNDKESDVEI
T3 sequence (Q9Y618 395-489 partner limits assumed): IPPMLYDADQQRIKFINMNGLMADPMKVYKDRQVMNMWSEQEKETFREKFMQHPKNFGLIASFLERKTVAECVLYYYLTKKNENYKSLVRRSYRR

SMILES: CSCC[C@H]1NC(=O)[C@@H](CO)NC(=O)[C@H](CC(N)=O)NC(=O)[C@H](CC(=O)O)NC(=O)[C@@H]([C@H](C)O)NC(=O)[C@H](Cc2c[nH]c3ccccc23)NC(=O)[C@H](CCCCCS)NC(=O)[C@H](CCCCN)NC(=O)[C@@H](CC(=O)O)NC1=O [des2.1.1, SHA-Trp-dThr-Asp-Asn-dSer-dMet-dAsp-Lys] (HELM PEPTIDE1{D.N.[dS].[dM].[dD].K.[O=C([C@H](CCCCCS)N[*:1])[*:2]].W.[dT]}$PEPTIDE1,PEPTIDE1,1:R1-9:R2$$$V2.0)
- HDAC8 activity raw data (signal) (HDAC8; peptide conc. 1.00E-05 M, listed as des2.1.1_t1): 964380
- HDAC8 activity raw data (signal) (HDAC8; peptide conc. 1.00E-05 M, listed as des2.1.1_t2): 738285
- HDAC8 activity raw data (signal) (HDAC8; peptide conc. 1.11E-06 M, listed as des2.1.1_t1): 17568030
- HDAC8 activity raw data (signal) (HDAC8; peptide conc. 1.11E-06 M, listed as des2.1.1_t2): 18194235
- HDAC8 activity raw data (signal) (HDAC8; peptide conc. 1.23E-07 M, listed as des2.1.1_t1): 56084359
- HDAC8 activity raw data (signal) (HDAC8; peptide conc. 1.23E-07 M, listed as des2.1.1_t2): 53955732
- HDAC8 activity raw data (signal) (HDAC8; peptide conc. 1.37E-08 M, listed as des2.1.1_t1): 68600267
- HDAC8 activity raw data (signal) (HDAC8; peptide conc. 1.37E-08 M, listed as des2.1.1_t2): 68709597
- HDAC8 activity raw data (signal) (HDAC8; peptide conc. 1.52E-09 M, listed as des2.1.1_t1): 73629892
- HDAC8 activity raw data (signal) (HDAC8; peptide conc. 1.52E-09 M, listed as des2.1.1_t2): 68940487
- HDAC8 activity raw data (signal) (HDAC8; peptide conc. 3.33E-06 M, listed as des2.1.1_t1): 6524465
- HDAC8 activity raw data (signal) (HDAC8; peptide conc. 3.33E-06 M, listed as des2.1.1_t2): 5933628
- HDAC8 activity raw data (signal) (HDAC8; peptide conc. 3.70E-07 M, listed as des2.1.1_t1): 36548840
- HDAC8 activity raw data (signal) (HDAC8; peptide conc. 3.70E-07 M, listed as des2.1.1_t2): 38514186
- HDAC8 activity raw data (signal) (HDAC8; peptide conc. 4.12E-08 M, listed as des2.1.1_t1): 62692187
- HDAC8 activity raw data (signal) (HDAC8; peptide conc. 4.12E-08 M, listed as des2.1.1_t2): 60959948
- HDAC8 activity raw data (signal) (HDAC8; peptide conc. 4.57E-09 M, listed as des2.1.1_t1): 71596500
- HDAC8 activity raw data (signal) (HDAC8; peptide conc. 4.57E-09 M, listed as des2.1.1_t2): 73045422
- HDAC8 activity raw data (signal) (HDAC8; peptide conc. 5.08E-10 M, listed as des2.1.1_t1): 76849547
- HDAC8 activity raw data (signal) (HDAC8; peptide conc. 5.08E-10 M, listed as des2.1.1_t2): 76232042
- HDAC6 activity raw data (signal) (HDAC6; Conc. 1.00E-05 M, t1): -77
- HDAC6 activity raw data (signal) (HDAC6; Conc. 1.00E-05 M, t2): -1621
- HDAC6 activity raw data (signal) (HDAC6; Conc. 1.11E-06 M, t1): 12750
- HDAC6 activity raw data (signal) (HDAC6; Conc. 1.11E-06 M, t2): 10889
- HDAC6 activity raw data (signal) (HDAC6; Conc. 1.23E-07 M, t1): 59972
- HDAC6 activity raw data (signal) (HDAC6; Conc. 1.23E-07 M, t2): 56137
- HDAC6 activity raw data (signal) (HDAC6; Conc. 1.37E-08 M, t1): 194975
- HDAC6 activity raw data (signal) (HDAC6; Conc. 1.37E-08 M, t2): 185826
- HDAC6 activity raw data (signal) (HDAC6; Conc. 1.52E-09 M, t1): 455139
- HDAC6 activity raw data (signal) (HDAC6; Conc. 1.52E-09 M, t2): 435218
- HDAC6 activity raw data (signal) (HDAC6; Conc. 3.33E-06 M, t1): 6654
- HDAC6 activity raw data (signal) (HDAC6; Conc. 3.33E-06 M, t2): 2213
- HDAC6 activity raw data (signal) (HDAC6; Conc. 3.70E-07 M, t1): 27729
- HDAC6 activity raw data (signal) (HDAC6; Conc. 3.70E-07 M, t2): 16335
- HDAC6 activity raw data (signal) (HDAC6; Conc. 4.12E-08 M, t1): 104749
- HDAC6 activity raw data (signal) (HDAC6; Conc. 4.12E-08 M, t2): 101798
- HDAC6 activity raw data (signal) (HDAC6; Conc. 4.57E-09 M, t1): 322592
- HDAC6 activity raw data (signal) (HDAC6; Conc. 4.57E-09 M, t2): 306483
- HDAC6 activity raw data (signal) (HDAC6; Conc. 5.08E-10 M, t1): 505663
- HDAC6 activity raw data (signal) (HDAC6; Conc. 5.08E-10 M, t2): 482059
- HDAC3 activity raw data (signal) (HDAC3; Conc. 1.00E-05 M, t1): 7144
- HDAC3 activity raw data (signal) (HDAC3; Conc. 1.00E-05 M, t2): 5841
- HDAC3 activity raw data (signal) (HDAC3; Conc. 1.11E-06 M, t1): 51390
- HDAC3 activity raw data (signal) (HDAC3; Conc. 1.11E-06 M, t2): 54678
- HDAC3 activity raw data (signal) (HDAC3; Conc. 1.23E-07 M, t1): 246556
- HDAC3 activity raw data (signal) (HDAC3; Conc. 1.23E-07 M, t2): 273031
- HDAC3 activity raw data (signal) (HDAC3; Conc. 1.37E-08 M, t1): 687389
- HDAC3 activity raw data (signal) (HDAC3; Conc. 1.37E-08 M, t2): 738917
- HDAC3 activity raw data (signal) (HDAC3; Conc. 1.52E-09 M, t1): 1292643
- HDAC3 activity raw data (signal) (HDAC3; Conc. 1.52E-09 M, t2): 1253696
- HDAC3 activity raw data (signal) (HDAC3; Conc. 3.33E-06 M, t1): 22832
- HDAC3 activity raw data (signal) (HDAC3; Conc. 3.33E-06 M, t2): 23560
- HDAC3 activity raw data (signal) (HDAC3; Conc. 3.70E-07 M, t1): 127387
- HDAC3 activity raw data (signal) (HDAC3; Conc. 3.70E-07 M, t2): 114572
- HDAC3 activity raw data (signal) (HDAC3; Conc. 4.12E-08 M, t1): 487885
- HDAC3 activity raw data (signal) (HDAC3; Conc. 4.12E-08 M, t2): 457810
- HDAC3 activity raw data (signal) (HDAC3; Conc. 4.57E-09 M, t1): 1034207
- HDAC3 activity raw data (signal) (HDAC3; Conc. 4.57E-09 M, t2): 1052923
- HDAC3 activity raw data (signal) (HDAC3; Conc. 5.08E-10 M, t1): 1393662
- HDAC3 activity raw data (signal) (HDAC3; Conc. 5.08E-10 M, t2): 1455609

Reference: paper PMC8185074, “Anchor extension: a structure-guided approach to design cyclic peptides targeting enzyme active sites” (Nature Communications, 2021)
